Reference: patent US9375450B2, “Vaginal tissue rejuvenation compositions and methods” (priority 2011, dated 2016)

Legend:
[1] = system: rat vaginal Col1a1, Col3a1, Col5a1 mRNA; assay: qRT-PCR of vaginal collagen gene expression after 2 weeks vaginal suppositories; assay type: in vivo; settings: OVX rats, vaginal suppositories 2 weeks, mean±SD
From the text: Ten to 12-weeks old female ovariectomized (OVX) Sprague-Dawley rats were utilized for the experiments. The animals were acclimatized to the environmental conditions before starting the experiment. The animals were housed individually and were allowed free access to water and rodent food. Two weeks after the ovariectomy rats (n=36) were divided into five groups: control (receiving placebo suppositories, n=8), Zinc (receiving zinc sulfate containing suppositories, n=8), GW (receiving GW501516 containing suppositories, n=8), Zinc with GW (receiving Zinc with GW 501516 containing suppositories, n=8) and Estradiol (receiving estradiol containing suppositories, n=4).
The suppositories were prepared according to the fusion method, using a polypeg suppository base (MEDISCA, N.Y., USA). […] Using a microwave, the suppository base was melted in a small beaker for 3 min and then transferred and kept into a water bath at a temperature of 55° C. The proper amount of above reagent was added to the liquefied base and meticulously crushed with a smooth rounded-end glass rod for about 20 min to make the solution to be even and clear. A pipette tip was used to suck some amount of solution and push it into a plastic tube with a diameter of 3.5 mm, and the tube was immediately left on the flat surface of an ice bucket. The suppository turned to white in color when it was solid. The moulded suppository was then pushed out of the tube using a round rod. The moulded suppository was cut using a razor blade to a length of 1.2 cm each, which was calibrated to equal a volume of 50±5 μl per each suppository. After 30 min of cooling at room temperature, the suppositories were stored at 4° C. in a closed chamber until use. They were left to reach room temperature before use.
Total RNA was isolated from 20 mg of vaginal rat tissue in each experimental rat group using the RNeasy Mini kit (Qiagen) according to the manufacturer's specifications. For each total RNA preparation, DNase digestion was performed to remove contaminating genomic DNA. Total RNA samples from each tissue were quantified and evaluated for RNA integrity by the Agilent Bioanalyzer 2100 (Applied Biosystems, Foster City Calif., USA). Following RNA extraction, cDNA was reverse transcribed from ˜500 ng of each total RNA preparation using the qScript cDNA synthesis kit (Quanta Biosciences, Gaithersburg Md., USA). Finally, cDNA samples were used to perform gene expression analysis by qRT-PCR using SYBR Green technology on the RealPlex EP Mastercycler (Eppendorf, Germany) of five genes with known roles in vaginal tissue reconstruction: Collagen IaI (col 1a1), Collagen IIIaI (col 3a1), Collagen VaI (col 5a1), Elastin (eln), Tensin I (tns-1). Glyceraldehyde-3 Phosphate Dehydrogenase (gapdh) was used as a positive control to normalize the expression of each gene. Each qRT-PCR reaction was run in triplicate using Perfecta SYBR Green Supermix (Quanta Biosciences, Gaithersburg Md., USA) in 25 μL reaction volumes using a final concentration of 300 nM forward and reverse primers. For each of the genes analyzed in this study, primers were designed using Primer-BLAST software (NCBI) and synthesized by IDT Technologies (San Diego, Calif.).

[2] = system: ovariectomized (OVX) Sprague-Dawley rats; assay: Vaginal histology and histomorphometry after 2 weeks vaginal suppositories; assay type: in vivo, rat; settings: vaginal suppositories 2 weeks
Experimental: Ten to 12-weeks old female ovariectomized (OVX) Sprague-Dawley rats were utilized for the experiments. The animals were acclimatized to the environmental conditions before starting the experiment. The animals were housed individually and were allowed free access to water and rodent food. […] The suppositories were prepared according to the fusion method, using a polypeg suppository base ([…]., USA). […] Using a microwave, the suppository base was melted in a small beaker for 3 min and then transferred and kept into a water bath at a temperature of 55° C. The proper amount of above reagent was added to the liquefied base and meticulously crushed with a smooth rounded-end glass rod for about 20 min to make the solution to be even and clear. A pipette tip was used to suck some amount of solution and push it into a plastic tube with a diameter of 3.5 mm, and the tube was immediately left on the flat surface of an ice bucket. The suppository turned to white in color when it was solid. The moulded suppository was then pushed out of the tube using a round rod. […] After 30 min of cooling at room temperature, the suppositories were stored at 4° C. in a closed chamber until use. They were left to reach room temperature before use. The day after the last treatment the rats were overnight fasted and then sacrificed. Macroscopic measurement (genital hiatus, vaginal length) were taken and the vagina was dissected out carefully to avoid any injury to the vagina. The mid section of the vagina was utilized for histology (H and E stain, Masson's trichrome stain) and immunofluorescence and the rest of the vagina was used for RNA extraction and RT-PCR. […] For each animal, a 4 μm-thick paraffin section was cut and stained with haematoxylineosin and with Masson's trichrome stain for morphological examination. […] The cornification was determined by the presence of a keratin layer on the vaginal epithelium. Measurements of the different vaginal layers were performed on the fifth segment of the vagina, which is approximately halfway between the middle region and the portio vaginalis uteri. […] Images were captured with a color digital camera and quantified using ImageJ software was used. […] The thickness of the lamina propria was obtained by deducting the thickness of the epithelium and muscularis from total vaginal thickness.

[3] = system: rat vaginal Collagen I, Collagen III, Collagen V protein; assay: Immunofluorescence of vaginal collagen protein expression after 2 weeks vaginal suppositories; assay type: in vivo; settings: OVX rats, vaginal suppositories 2 weeks, mean±SD
Experimental: Ten to 12-weeks old female ovariectomized (OVX) Sprague-Dawley rats were utilized for the experiments. The animals were acclimatized to the environmental conditions before starting the experiment. The animals were housed individually and were allowed free access to water and rodent food. […] The suppositories were prepared according to the fusion method, using a polypeg suppository base ([…]., USA). […] Using a microwave, the suppository base was melted in a small beaker for 3 min and then transferred and kept into a water bath at a temperature of 55° C. The proper amount of above reagent was added to the liquefied base and meticulously crushed with a smooth rounded-end glass rod for about 20 min to make the solution to be even and clear. A pipette tip was used to suck some amount of solution and push it into a plastic tube with a diameter of 3.5 mm, and the tube was immediately left on the flat surface of an ice bucket. The suppository turned to white in color when it was solid. The moulded suppository was then pushed out of the tube using a round rod. […] After 30 min of cooling at room temperature, the suppositories were stored at 4° C. in a closed chamber until use. They were left to reach room temperature before use. The day after the last treatment the rats were overnight fasted and then sacrificed. Macroscopic measurement (genital hiatus, vaginal length) were taken and the vagina was dissected out carefully to avoid any injury to the vagina. The mid section of the vagina was utilized for histology (H and E stain, Masson's trichrome stain) and immunofluorescence and the rest of the vagina was used for RNA extraction and RT-PCR. Samples were incubated with three different antibodies, collagen I, III and anti-actin or collagen I and V and anti-actin. Frozen tissues samples were cut into sections of 6 μm and fixed for 10 min with acetone, followed by five washes of phosphate-buffered saline (PBS). […] After that, sections were incubated with the secondary antibody for one hour in the dark, at room temperature, followed by five washes of PBS. […] Alexa Fluor 405 Goat Anti-Mouse IgG (1:400) (Invitrogen); Cy3-AffiniPure Goat Anti-Mouse IgM (1:400) (Jackson ImmunoResearch Laboratories, West Grove, Pa.); Alexa Fluor 647 (1;200) phalloidin (Invitrogen). […] Four images were obtained per section. Images were capture with an Orca II-ERG 12 bitt CCD camera in a Zeiss Apotome microscope with a 20× objective. The data was analyzed using Matamorph version 7.7.4 software. Results are represented as mean pixel intensity ratios per square area.

[4] = system: ovariectomized (OVX) Sprague-Dawley rats; assay: Macroscopic measurements (genital hiatus, vaginal length) after 2 weeks vaginal suppositories; assay type: in vivo, rat; settings: vaginal suppositories 2 weeks (20 μM zinc sulfate, 10 nM GW501516, 0.01% estradiol), mean±SD
Experimental: Ten to 12-weeks old female ovariectomized (OVX) Sprague-Dawley rats were utilized for the experiments. The animals were acclimatized to the environmental conditions before starting the experiment. The animals were housed individually and were allowed free access to water and rodent food. […] The suppositories were prepared according to the fusion method, using a polypeg suppository base ([…]., USA). […] Using a microwave, the suppository base was melted in a small beaker for 3 min and then transferred and kept into a water bath at a temperature of 55° C. The proper amount of above reagent was added to the liquefied base and meticulously crushed with a smooth rounded-end glass rod for about 20 min to make the solution to be even and clear. A pipette tip was used to suck some amount of solution and push it into a plastic tube with a diameter of 3.5 mm, and the tube was immediately left on the flat surface of an ice bucket. The suppository turned to white in color when it was solid. The moulded suppository was then pushed out of the tube using a round rod. […] After 30 min of cooling at room temperature, the suppositories were stored at 4° C. in a closed chamber until use. They were left to reach room temperature before use. The day after the last treatment the rats were overnight fasted and then sacrificed. Macroscopic measurement (genital hiatus, vaginal length) were taken and the vagina was dissected out carefully to avoid any injury to the vagina. The mid section of the vagina was utilized for histology (H and E stain, Masson's trichrome stain) and immunofluorescence and the rest of the vagina was used for RNA extraction and RT-PCR.

C[C@]12CC[C@@H]3c4ccc(O)cc4CC[C@H]3[C@@H]1CC[C@@H]2O [Estradiol]
ratio of vaginal Col1a1 to Col3a1 mRNA expression ([1]; placebo 0.78±0.2): 0.70±0.4 relative units | ratio of vaginal Col1a1 to Col5a1 mRNA expression ([1]; placebo 4.3±1.9): 5.3±1.2 relative units | vaginal epithelial thickness ([2]; mean±SD, placebo 57±18): 140±54 μm | vaginal muscularis thickness ([2]; mean±SD, placebo 121±44): 124±53 μm | vaginal lamina propria thickness ([2]; mean±SD, placebo 179±71): 152±80 μm | vaginal thickness (all three layers of the vagina) ([2]; mean±SD, placebo 358±86): 417±82 μm | vaginal epithelial cornification rate ([2]; placebo 0%): 100% | lamina propria collagen fiber compactness ([2]; scale 0-5 (0=loose, 5=tight), mean±SD, placebo 4.5±0.6): 1.6±0.6 relative units | ratio of vaginal Collagen I to Collagen III protein expression ([3]; placebo 1.16±0.2): 1.08±0.2 relative units | ratio of vaginal Collagen I to Collagen V protein expression ([3]; placebo 1.28±0.3): 1.74±0.5 relative units | genital hiatus (distance between the external urethral meatus and the mid anus) ([4]; placebo 12.6±1.1): 16.0±1.4 mm | vaginal length ([4]; placebo 14.1±1.1): 18.7±1.5 mm
